Laboratory results: article PMC9127657 (Bioorganic & medicinal chemistry, 2021)

System: MT-4 cells
Assay: Cytotoxicity assay in MT-4 cells
Format: cell-based
Conditions: concentration required to reduce the viability of uninfected MT-4 cells by 50%; three days

Q: Which CC50 does the source give for “(S)-2-((3-(2,3-dihydro-1H-pyrrolo[3,4-c]pyridine-2-carbonyl)phenyl) sulfonamido)-N-(4-methoxyphenyl)-N-methyl-3-phenylpropanamide [Compound I-10c]” here?
A: Its CC50 is over 8.76 µM.

System: not listed separately
Assay: Cytotoxicity assay in MT-4 cells
Format: cell-based
Conditions: human, uninfected MT-4 cells

Q: For `COc1ccc(N(C)C(=O)[C@H](Cc2ccccc2)NC(=O)C(=O)Nc2ccc([N+](=O)[O-])cc2)cc1` [III-16f, (S)-N1-(1-((4-methoxyphenyl)(methyl)amino)-1-oxo-3-phenylpropan-2-yl)–N2-(4-nitrophenyl)oxalamide], which CC50 at 3 days is on record?
A: Its CC50 at 3 days is over 10.2 µM.

System: HIV-1 NL4–3 Nanoluc-sec virus
Assay: not given
Format: cell-based
Conditions: concentration that inhibits HIV-1NL4–3 nanoluc-sec infection of MT-4 cells by 50%; three days

Q: Which EC50 does the source give for “(S)-2-((3-(2,3-dihydro-1H-pyrrolo[3,4-c]pyridine-2-carbonyl)phenyl) sulfonamido)-N-(4-methoxyphenyl)-N-methyl-3-phenylpropanamide [Compound I-10c]” here?
A: The EC50 was over 8.76 µM.

Same assay, conditions: tested concentration 5 μg/mL, MT-4 cells

Q: For `COc1ccc(N(C)C(=O)[C@H](Cc2ccccc2)NC(=O)c2cccc(S(=O)(=O)N3CCc4ccccc43)c2)cc1` [Compound V-25d, (S)-3-(indolin-1-ylsulfonyl)-N-(1-((4-methoxyphenyl)(methyl)amino)-1-oxo-3-phenylpropan-2-yl)benzamide], which “antiviral activity at the tested concentration” value (“antiviral activity” for short) is on record?
A: Its value is “loss of antiviral activity”.

Q: Which “antiviral activity” value does the source give for `COc1ccc(N(C)C(=O)[C@H](Cc2ccccc2)NC(=O)c2cccc(S(=O)(=O)N3CCc4cc(OC)ccc43)c2)cc1` [Compound V-25e, (S)-3-((5-methoxyindolin-1-yl)sulfonyl)-N-(1-((4-methoxyphenyl) (methyl)amino)-1-oxo-3-phenylpropan-2-yl)benzamide] here?
A: Its value is “loss of antiviral activity”.

Q: Which “antiviral activity” value does the source give for `COc1ccc(N(C)C(=O)[C@H](Cc2ccccc2)NC(=O)c2cccc(S(=O)(=O)N3CCc4cc([N+](=O)[O-])ccc43)c2)cc1` [Compound V-25f, (S)-N-(1-((4-methoxyphenyl)(methyl)amino)-1-oxo-3-phenylpropan-2-yl)-3-((5-nitroindolin-1-yl)sulfonyl)benzamide] here?
A: The value was “loss of antiviral activity”.

Q: With `COc1ccc(N(C)C(=O)[C@H](Cc2ccccc2)NC(=O)c2cccc(S(=O)(=O)Nc3ccc(C(F)(F)F)cc3)c2)cc1` [Compound V-25j, (S)-N-(1-((4-methoxyphenyl)(methyl)amino)-1-oxo-3-phenylpropan-2-yl)-3-(N-(4-(trifluoromethyl)phenyl)sulfamoyl)benzamide] as the molecule, how does the “antiviral activity” value read?
A: The value was “loss of antiviral activity”.

Q: For `COc1ccc(N(C)C(=O)[C@H](Cc2ccccc2)NS(=O)(=O)CC(=O)N2CCc3cc([N+](=O)[O-])ccc32)cc1` [II-13 g, (S)-N-(4-methoxyphenyl)-N-methyl-2-((2-(5-nitroindolin-1-yl)-2-oxoethyl)sulfonamido)-3-phenylpropanamide], which “antiviral activity” value is on record?
A: Its value is “lost their activity”.

Q: With `COc1ccc(N(C)C(=O)[C@H](Cc2ccccc2)NS(=O)(=O)CC(=O)Nc2ccc3ncsc3c2)cc1` [II-13b, (S)-2-((2-(benzo[d]thiazol-6-ylamino)-2-oxoethyl)sulfonamido)-N-(4-methoxyphenyl)-N-methyl-3-phenylpropanamide] as the molecule, how does the “antiviral activity” value read?
A: The value was “lost their activity”.

Q: With `COc1ccc(N(C)C(=O)[C@H](Cc2ccccc2)NS(=O)(=O)CC(=O)N2CCc3cc(OC)ccc32)cc1` [II-13d, (S)-2-((2-(5-methoxyindolin-1-yl)-2-oxoethyl)sulfonamido)-N-(4-methoxyphenyl)-N-methyl-3-phenylpropanamide] as the molecule, how does the “antiviral activity” value read?
A: Its value is “lost their activity”.

Q: Which “antiviral activity” value does the source give for `COc1ccc(N(C)C(=O)[C@H](Cc2ccccc2)NS(=O)(=O)CC(=O)Nc2cc(F)cc(F)c2)cc1` [II-13e, (S)-2-((2-((3,5-difluorophenyl)amino)-2-oxoethyl)sulfonamido)-N-(4-methoxyphenyl)-N-methyl-3-phenylpropanamide] here?
A: The value was “lost their activity”.

Q: Which “antiviral activity” value does the source give for `COc1ccc(N(C)C(=O)[C@H](Cc2ccccc2)NS(=O)(=O)CC(=O)n2ncc3ccccc32)cc1` [II-13f, (S)-2-((2-(1H-indazol-1-yl)-2-oxoethyl)sulfonamido)-N-(4-methoxyphenyl)-N-methyl-3-phenylpropeanamide] here?
A: The value was “lost their activity”.

Q: Which “antiviral activity” value does the source give for `COc1ccc(N(C)C(=O)[C@H](Cc2ccccc2)NC(=O)c2cccc(S(=O)(=O)Nc3cc(F)cc(F)c3)c2)cc1` [V-25 h, (S)-3-(N-(3,5-difluorophenyl)sulfamoyl)-N-(1-((4-methoxyphenyl)(methyl)amino)-1-oxo-3-phenylpropan-2-yl)benzamide] here?
A: Its value is “loss of antiviral activity”.
